From patent US12630600B2 (MEDIMMUNE LIMITED, priority 2022, dated 2026) come the findings set out here.

Each structure is given as a SMILES string. Where two headings read alike, the source gives them in different places. Starred links: 1 amine or outer side, 2 acyl side, 3 side chain; linkers in the order of their positions; H or OH if unused. Non-standard residues stand in square brackets, D forms with d. Residues, ends and D or L forms follow the SMILES beside them. Groups on a side chain read outwards from the residue. *: point of attachment. C20 diacid = O=C(O)CCCCCCCCCCCCCCCCCCC(=O)*; γGlu = O=C(O)[C@H](CCC(=O)[*:2])N[*:1]; αMeF = C[C@](N)(Cc1ccccc1)C(=O)O; AEEA = NCCOCCOCC(=O)O; Aib = CC(C)(N)C(=O)O

One series addresses T1, neprilysin (Homo sapiens, UniProt P08473).
T1 construct: purchased R&D Systems 1182-ZNC-010
The series is described as follows: Proteolytic resistance to neprilysin. Format: in vitro ADME. To be noted: pH 8.3. In short, it runs like this: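 Peptide (~250 µM stock) was mixed 1:1 with recombinant neprilysin (100 µg/mL stock) in Tris/NaCl/NaHCO3 buffer, pH 8.3, at 37 °C. Aliquots taken at 0, 30 min, 1, 2, 4 and 24 h were TFA-quenched. Intact peptide remaining was estimated by RP-HPLC peak area at 210 nm.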

The conditions of series [1]: dog, in vivo, iv, 10 nmol/kg. The text has this:
(§1) Selected test peptides (n=8) were profiled for pharmacokinetic (PK) properties in the mouse after single intravenous (i.v.) or subcutaneous (s.c.) dose. A subset (n=4) meeting the acceptance criteria was subsequently profiled in the dog (single i.v. dose) and non-human primate (single i.v. and s.c. dose). […] Low-binding plasticware containers were used during preparation and sample handling to avoid non-specific binding.
Blood of each sample was transferred into plastic micro centrifuge tubes containing EDTA-K2, inverted several times for proper mixing of contents and then placed on wet ice.
(§2) Samples analysis: Samples were analyzed by LC-MS/MS. Calibration standards were injected at the beginning and end of each batch and the determined concentration for each prepared standard was used to construct a calibration curve. Plasma and dose aliquot sample concentrations were determined from the plasma calibration curve.
Data analysis: Plasma concentration data was analyzed by non-compartmental analysis (NCA) using Phoenix Winnonlin v. 8.3.3.33. Linear trapezoidal rule was used for increasing values and log trapezoidal rule was used for decreasing values, applying uniform weighting for lambda_z calculations. Subcutaneous bioavailability was calculated as the ratio AUC(s.c.)0-inf/AUC(i.v.)0-inf. Reported values (Table 18) represent the mean of the individual estimates.

The conditions of series [2]: cynomolgus monkey, in vivo, 20 nmol/kg.
Source text: as §1
Non-human primate: PK was studied in non-naïve male cynomolgus monkeys. After dosing, PK samples were collected from the femoral vein. Blood of each sample was transferred into plastic micro centrifuge tubes containing EDTA-K2, inverted several times for proper mixing of contents and then placed on wet ice.
as §2
Data analysis: Plasma concentration data was analyzed by non-compartmental analysis (NCA) using Phoenix Winnonlin v. 8.3.3.33. […] Subcutaneous bioavailability was calculated as the ratio AUC(s.c.)0-inf/AUC(i.v.)0-inf. […]

T1 sequence (P08473 whole entry): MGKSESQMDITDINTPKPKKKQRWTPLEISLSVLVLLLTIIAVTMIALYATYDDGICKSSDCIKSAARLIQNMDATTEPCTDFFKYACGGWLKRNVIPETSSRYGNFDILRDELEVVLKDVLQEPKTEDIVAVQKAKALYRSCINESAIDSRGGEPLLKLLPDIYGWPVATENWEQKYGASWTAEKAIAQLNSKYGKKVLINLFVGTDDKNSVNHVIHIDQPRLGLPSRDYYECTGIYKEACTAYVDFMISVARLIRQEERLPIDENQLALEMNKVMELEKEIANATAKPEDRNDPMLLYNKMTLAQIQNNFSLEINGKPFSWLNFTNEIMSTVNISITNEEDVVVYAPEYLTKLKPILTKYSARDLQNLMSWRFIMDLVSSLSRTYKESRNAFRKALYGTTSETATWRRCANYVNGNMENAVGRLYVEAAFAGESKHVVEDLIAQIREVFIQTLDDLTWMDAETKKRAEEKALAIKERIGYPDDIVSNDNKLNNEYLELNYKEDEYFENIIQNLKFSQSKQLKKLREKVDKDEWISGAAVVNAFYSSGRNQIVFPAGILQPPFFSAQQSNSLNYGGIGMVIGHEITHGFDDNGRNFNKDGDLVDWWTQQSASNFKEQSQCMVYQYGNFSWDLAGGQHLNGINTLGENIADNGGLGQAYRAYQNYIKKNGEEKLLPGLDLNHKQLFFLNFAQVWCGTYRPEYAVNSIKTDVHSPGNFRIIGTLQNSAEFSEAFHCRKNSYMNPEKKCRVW

Broadly, the half-life is the time needed for the level to fall by half in the phase considered. A higher half-life goes with slow loss. By bioavailability is commonly meant the share of a dose that reaches the circulation, judged against a reference dose that is usually intravenous. For the compound `CC[C@H](C)[C@H](NC(=O)C(C)(C)NC(=O)[C@H](CCC(N)=O)NC(=O)[C@@H](NC(=O)[C@](C)(Cc1ccccc1)NC(=O)[C@H](CC(=O)O)NC(=O)[C@H](CCCCNC(=O)COCCOCCNC(=O)COCCOCCNC(=O)CC[C@H](NC(=O)CC[C@H](NC(=O)CCCCCCCCCCCCCCCCCCC(=O)O)C(=O)O)C(=O)O)NC(=O)[C@H](C)NC(=O)[C@H](C)NC(=O)[C@H](CCCNC(=N)N)NC(=O)[C@H](CO)NC(=O)[C@H](CC(=O)O)NC(=O)[C@H](CC(C)C)NC(=O)[C@](C)(Cc1ccccc1)NC(=O)[C@H](CCCCN)NC(=O)[C@H](CO)NC(=O)[C@@H](NC(=O)[C@H](CC(=O)O)NC(=O)[C@H](CO)NC(=O)[C@@H](NC(=O)[C@](C)(Cc1ccccc1)NC(=O)[C@H](CO)NC(=O)CNC(=O)[C@H](Cc1c[nH]cn1)NC(=O)C(C)(C)NC(=O)[C@@H](N)Cc1c[nH]cn1)[C@@H](C)O)C(C)C)C(C)C)C(=O)N[C@@H](C)C(=O)N[C@@H](CC(N)=O)C(=O)N[C@H](C(N)=O)[C@@H](C)O` [Peptide 229, H-Aib-H-G-S-αMePhe-T-S-D-V-S-K-αMePhe-L-D-S-R-A-A-K(ε-(O2Oc)-(O2Oc)-γE-γE-C20diacid)20-D-αMePhe-V-Q-Aib-I-A-N-T-amide] (H-H[Aib]HGS[αMeF]TSDVSK[αMeF]LDSRAAK([AEEA-AEEA-γGlu-γGlu-C20 diacid])D[αMeF]VQ[Aib]IANT-NH2), the “% intact peptide over time, Neprilysin” value at neprilysin is recorded as 100%. The half-life was 86 h in series [1] and 130 h in series [2] (iv). In series [2], the bioavailability was found to be 75%.
